This is an account of results in patent US9981940B2, “Aryl sulfide derivatives and aryl sulfoxide derivatives as acaricides and insecticides” (BAYER CROPSCIENCE AKTIENGESELLSCHAFT, priority 2013, dated 2018).

Data set [1] can be described thus: log P by HPLC (OECD Guideline 117), method [b] neutral range. It counts as physicochemical. As to conditions: HPLC; for logP[b]: method [b] neutral range; for chromatographic logP: reversed-phase C18 HPLC column, neutral range, pH 7.8. As for the experimental part: (§1) The log P values were determined analogously to OECD Guideline 117 (EC Directive 92/69/EEC) by HPLC (high-performance liquid chromatography) using reversed-phase columns (C 18), by the following methods:
[b] The LC-MS determination in the neutral range is effected at pH 7.8 with 0.001 molar aqueous ammonium hydrogencarbonate solution and acetonitrile as eluents; linear gradient from 10% acetonitrile to 95% acetonitrile.

A further data set has as its system Tetranychus urticae. The data set can be described thus: Tetranychus urticae spray test, OP-resistant (TETRUR). Particulars: after 6 days; for pest or weed control at 500 g/ha: Tetranychus urticae, 144 h, read-out: efficacy. It counts as in vivo. The method, then:
Tetranychus urticae—Spray Test, OP-Resistant (TETRUR)
• Solvent: 78.0 parts by weight of acetone • 1.5 parts by weight of dimethylformamide • Emulsifier: 0.5 part by weight of alkylaryl polyglycol ether
To produce an appropriate active ingredient formulation, 1 part by weight of active ingredient is mixed with the specified amounts of solvent and emulsifier, and the concentrate is diluted to the desired concentration with emulsifier-containing water.
Discs of bean leaves (Phaseolus vulgaris) infested by all stages of the greenhouse red spider mite (Tetranychus urticae) are sprayed with an active ingredient formulation of the desired concentration.
After 6 days, the efficacy in % is determined 100% means that all the spider mites have been killed; 0% means that none of the spider mites have been killed.

The nature of data set [2]: log P by HPLC (OECD Guideline 117), method [a] acidic range. The class given is physicochemical. Particulars: for logP[a]: HPLC, method [a] acidic range; for chromatographic logP: reversed-phase C18 HPLC column, acidic range. The method, then: as §1
[a] The LC-MS determination in the acidic range is effected at pH 2.7 with 0.1% aqueous formic acid and acetonitrile (contains 0.1% formic acid) as eluents; linear gradient from 10% acetonitrile to 95% acetonitrile.

The mark [3] stands for this setting: pH 2.7, HPLC method [a], read-out: logP[a].
Setting [4] is: pH 2.7, HPLC, pH 2.7, read-out: log P[a].

With `Cc1cc(F)c(-n2nc(OCC(C)(C)C)n(C3CC3)c2=O)cc1[S+]([O-])CC(F)(F)F` (racemic) [Example 387], the “logP[b]” value in data set [1] is 3.52. The compound also registered an efficacy in the data set with Tetranychus urticae (application rate of 500 g/ha) of 90%. The “logP[a]” value in data set [2] is on record as 3.60.

As to `Cc1cc(F)c(-n2nc(C(C)(C)C)oc2=O)cc1[S+]([O-])CC(F)(F)F` (racemic) [Example 452], the “logP[b]” value in data set [1] is 3.09. Further, the efficacy in the data set on Tetranychus urticae (application rate of 500 g/ha) was 100%. In data set [2], the “logP[a]” value is 3.10.

As for `COCc1nn(-c2cc([S+]([O-])CC(F)(F)F)c(C)cc2F)c(=O)o1` (racemic) [Example 453], in data set [1], the “logP[b]” value was 2.10. The efficacy with Tetranychus urticae (application rate of 500 g/ha) worked out at 100%. Further, the “logP[a]” value in data set [2] is reported as 2.08.

Consider `COc1nn(-c2cc([S+]([O-])CC(F)(F)F)c(C)cc2F)c(=O)n1C1CC1` (single isomer, unassigned) [Example 379], for which the “logP[b]” value in data set [1] came to 2.09. Moreover, the efficacy with Tetranychus urticae (application rate of 500 g/ha) turned out to be 90%. Further, the “logP[a]” value in data set [2] is recorded as 2.14.

Take `COc1nn(-c2cc([S+]([O-])CC(F)(F)F)c(C)cc2F)c(=O)n1C1CC1` (single isomer, unassigned) [Example 380]: the “logP[b]” value in data set [1] was found to be 2.09. Also, in the data set on Tetranychus urticae (application rate of 500 g/ha), the efficacy was 100%. The “logP[a]” value in data set [2] is 2.14.

Turning to `Cc1cc(F)c(-n2ncn(C(C)C)c2=O)cc1[S+]([O-])CC(F)(F)F` (stereo not drawn) [Example 6, 2-{2-Fluoro-4-methyl-5-[(2,2,2-trifluoroethyl)sulphinyl]phenyl}-4-isopropyl-2,4-dihydro-3H-1,2,4-triazol-3-one], the chromatographic logP amounted to 2.02 in data set [1], 1.88 in data set [2] (setting [3]) and 1.88 in data set [2] (setting [4]). Moreover, the pest or weed control at 500 g/ha in the data set on Tetranychus urticae (application rate of 500 g/ha) was 80%.

As for `Cc1cc(F)c(-n2nc(C(F)(F)F)n(C)c2=O)cc1SCC(F)(F)F` [Example 9, 2-{2-Fluoro-4-methyl-5-[(2,2,2-trifluoroethyl)sulphanyl]phenyl}-4-methyl-5-(trifluoromethyl)-2,4-dihydro-3H-1,2,4-triazol-3-one], the values for the chromatographic logP in data set [1], in data set [2] (setting [3]) and in data set [2] (setting [4]) were 3.53, 3.58 and 3.58, respectively. Also, the pest or weed control at 500 g/ha with Tetranychus urticae (application rate of 500 g/ha) came out at 100%.

As to `Cc1cc(F)c(-n2nc(C(F)(F)F)n(C)c2=O)cc1[S+]([O-])CC(F)(F)F` (stereo not drawn) [Example 12, 2-{2-Fluoro-4-methyl-5-[(2,2,2-trifluoroethyl)sulphinyl]phenyl}-4-methyl-5-(trifluoromethyl)-2,4-dihydro-3H-1,2,4-triazol-3-one], the chromatographic logP amounted to 2.46 in data set [1], 2.52 in data set [2] (setting [3]) and 2.52 in data set [2] (setting [4]). Also, the pest or weed control at 500 g/ha in the data set with Tetranychus urticae (application rate of 500 g/ha) came out at 100%.

Consider `Cc1cc(F)c(-n2nc(C)n(C3CC3)c2=O)cc1[S+]([O-])CC(F)(F)F` (stereo not drawn) [Example 41], for which, in data set [1], the “logP[b]” value came out at 1.79. Moreover, the efficacy with Tetranychus urticae (application rate of 500 g/ha) turned out to be 90%. The “logP[a]” value in data set [2] amounted to 1.85.

Regarding `Cc1cc(F)c(-n2nc(C)n(C3CC3)c2=O)cc1SCC(F)(F)F` [Example 42], in data set [1], the “logP[b]” value was determined as 2.73. Further, in the data set on Tetranychus urticae (application rate of 500 g/ha), the efficacy came to 90%. Besides, in data set [2], the “logP[a]” value is reported as 2.76.

With `Cc1cc(F)c(-n2nc(C(C)C)n(C3CC3)c2=O)cc1[S+]([O-])CC(F)(F)F` (stereo not drawn) [Example 43], the “logP[b]” value in data set [1] worked out at 2.47. The compound further showed an efficacy with Tetranychus urticae (application rate of 500 g/ha) of 100%. For the same compound, the “logP[a]” value in data set [2] is 2.52.

As for `Cc1cc(F)c(-n2nc(C(C)C)n(C3CC3)c2=O)cc1SCC(F)(F)F` [Example 44], in data set [1], the “logP[b]” value is listed as 3.52. This compound also displayed an efficacy with Tetranychus urticae (application rate of 500 g/ha) of 100%. Moreover, the “logP[a]” value in data set [2] worked out at 3.59.

For `COCc1nn(-c2cc(SCC(F)(F)F)c(C)cc2F)c(=O)n1C1CC1` [Example 46], the “logP[b]” value in data set [1] turned out to be 2.90. The efficacy with Tetranychus urticae (application rate of 500 g/ha) is 90%. In data set [2], the “logP[a]” value stood at 2.91.

On to `Cc1cc(C)c(-n2nc(C(F)(F)F)n(C3CC3)c2=O)cc1SCC(F)(F)F` [Example 48], for which the “logP[b]” value in data set [1] was 4.09. In addition, in the data set with Tetranychus urticae (application rate of 500 g/ha), the efficacy is 100%. Besides, the “logP[a]” value in data set [2] was 4.13.

Regarding `Cc1cc(C)c(-n2nc(C(F)(F)F)n(C(C)(C)C)c2=O)cc1SCC(F)(F)F` [Example 49], in data set [1], the “logP[b]” value worked out at 4.88. The compound further returned an efficacy in the data set on Tetranychus urticae (application rate of 500 g/ha) of 90%. Besides, the “logP[a]” value in data set [2] came to 4.95.

On to `CCn1c(C(F)(F)F)nn(-c2cc(SCC(F)(F)F)c(C)cc2Cl)c1=O` [Example 50], for which the “logP[b]” value in data set [1] is 4.07. Moreover, the efficacy in the data set with Tetranychus urticae (application rate of 500 g/ha) turned out to be 100%. For the same compound, the “logP[a]” value in data set [2] amounted to 4.14.

For `O=c1n(-c2ccc(Cl)c(SCC(F)(F)F)c2)nc(C(F)(F)F)n1C1CC1` [Example 51], the “logP[b]” value in data set [1] came out at 4.39. Besides, in the data set with Tetranychus urticae (application rate of 500 g/ha), the efficacy was 90%. The “logP[a]” value in data set [2] came to 4.43.

As for `COc1ccc(-n2nc(C(F)(F)F)n(C3CC3)c2=O)cc1SCC(F)(F)F` [Example 52], the “logP[b]” value in data set [1] was 3.79. In the data set with Tetranychus urticae (application rate of 500 g/ha), this compound showed an efficacy of 90%. The “logP[a]” value in data set [2] was 3.84.

`CCn1c(C(F)(F)F)nn(-c2ccc(C)c(SCC(F)(F)F)c2)c1=O` [Example 54]: the “logP[b]” value in data set [1] worked out at 4.32. The compound also showed an efficacy in the data set on Tetranychus urticae (application rate of 500 g/ha) of 90%. Further, the “logP[a]” value in data set [2] was determined as 4.38.

In the case of `Cc1cc(F)c(-n2nc(C(F)(F)F)n(CC(F)(F)F)c2=O)cc1SCC(F)(F)F` [Example 55], in data set [1], the “logP[b]” value was 4.11. The efficacy in the data set with Tetranychus urticae (application rate of 500 g/ha) is recorded as 90%. Further, the “logP[a]” value in data set [2] came out at 4.22.

Consider `Cc1cc(F)c(-n2nc(C(F)(F)F)n(CC(F)(F)F)c2=O)cc1[S+]([O-])CC(F)(F)F` (stereo not drawn) [Example 56], for which the “logP[b]” value in data set [1] is 3.09. The efficacy with Tetranychus urticae (application rate of 100 g/ha) is 90%. The “logP[a]” value in data set [2] is recorded as 3.20.

Take `CCn1c(C(F)(F)F)nn(-c2cc(SCC(F)(F)F)c(C)cc2F)c1=O` [Example 57]: in data set [1], the “logP[b]” value came to 3.88. Further, the efficacy with Tetranychus urticae (application rate of 500 g/ha) came out at 90%. Besides, in data set [2], the “logP[a]” value is 3.96.

Take `CCn1c(C(F)(F)F)nn(-c2cc([S+]([O-])CC(F)(F)F)c(C)cc2F)c1=O` (stereo not drawn) [Example 58]: the “logP[b]” value in data set [1] amounted to 2.77. Also, the efficacy with Tetranychus urticae (application rate of 500 g/ha) is given as 90%. Besides, the “logP[a]” value in data set [2] was 2.88.

Turning to `Cc1cc(F)c(-n2nc(C(F)(F)F)n(C3CC3)c2=O)cc1SCC(F)(F)F` [Example 59], in data set [1], the “logP[b]” value amounted to 3.91. Also, the efficacy with Tetranychus urticae (application rate of 500 g/ha) stood at 100%. For the same compound, in data set [2], the “logP[a]” value came to 3.97.

For the compound `Cc1cc(F)c(-n2nc(C(C)(C)C)n(C3CC3)c2=O)cc1SCC(F)(F)F` [Example 63], the “logP[b]” value in data set [1] stood at 4.11. The efficacy in the data set with Tetranychus urticae (application rate of 500 g/ha) is reported as 100%. Besides, the “logP[a]” value in data set [2] was 4.17.

Take `Cc1cc(F)c(-n2nc(C3CC3)n(C3CC3)c2=O)cc1SCC(F)(F)F` [Example 65]: the “logP[b]” value in data set [1] was 3.33. In the data set with Tetranychus urticae (application rate of 500 g/ha), this compound returned an efficacy of 100%. Moreover, the “logP[a]” value in data set [2] was 3.39.

Turning to `Cc1cc(F)c(-n2nc(C(F)(F)F)n(C(C)(C)C)c2=O)cc1SCC(F)(F)F` [Example 67], the “logP[b]” value in data set [1] stood at 4.66. This compound also yielded an efficacy with Tetranychus urticae (application rate of 500 g/ha) of 90%. In addition, the “logP[a]” value in data set [2] was determined as 4.78.

Regarding `Cc1cc(F)c(-n2nc(-c3cccc(F)c3)n(C3CC3)c2=O)cc1SCC(F)(F)F` [Example 69], in data set [1], the “logP[b]” value turned out to be 3.89. The compound further displayed an efficacy in the data set on Tetranychus urticae (application rate of 100 g/ha) of 100%. In addition, the “logP[a]” value in data set [2] is recorded as 3.98.

Take `CCCCc1nn(-c2cc(SCC(F)(F)F)c(C)cc2F)c(=O)n1C1CC1` [Example 71]: the “logP[b]” value in data set [1] was 3.96. Moreover, in the data set on Tetranychus urticae (application rate of 500 g/ha), the efficacy is reported as 90%. For the same compound, the “logP[a]” value in data set [2] is given as 4.05.
